The values below come from ChEMBL document CHEMBL1909046, “DrugMatrix in vitro pharmacology data”.

As a reminder, the IC50 is the concentration that inhibits the measured activity by half. As a reminder, the Ki is the equilibrium dissociation constant of an inhibitor or competing ligand from its target.

For one assay, the target named is Adenosine receptor A2a (Homo sapiens, UniProt P29274). In words: DRUGMATRIX: Adenosine A2A radioligand binding (ligand: […]). The class given is cell membranes, HEK293, Membrane. The conditions noted are these: hek293; Not Active = under 50% inhibition at 10 µM.
Adenosine receptor A2a, sequence (P29274 whole entry): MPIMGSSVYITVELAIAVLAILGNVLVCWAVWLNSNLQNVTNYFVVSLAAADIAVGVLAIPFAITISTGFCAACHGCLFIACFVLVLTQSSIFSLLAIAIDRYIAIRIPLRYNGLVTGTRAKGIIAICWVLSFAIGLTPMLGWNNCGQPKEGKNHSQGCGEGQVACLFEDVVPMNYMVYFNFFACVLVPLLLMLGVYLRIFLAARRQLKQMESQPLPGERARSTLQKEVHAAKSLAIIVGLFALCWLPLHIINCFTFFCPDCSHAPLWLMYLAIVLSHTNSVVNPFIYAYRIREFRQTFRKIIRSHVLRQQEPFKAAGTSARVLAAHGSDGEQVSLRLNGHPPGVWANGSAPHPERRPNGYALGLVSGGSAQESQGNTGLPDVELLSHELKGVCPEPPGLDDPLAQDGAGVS
Assay [1] deals with T1, Angiotensin-converting enzyme (Oryctolagus cuniculus, UniProt P12822).
T1 sequence (P12822 whole entry): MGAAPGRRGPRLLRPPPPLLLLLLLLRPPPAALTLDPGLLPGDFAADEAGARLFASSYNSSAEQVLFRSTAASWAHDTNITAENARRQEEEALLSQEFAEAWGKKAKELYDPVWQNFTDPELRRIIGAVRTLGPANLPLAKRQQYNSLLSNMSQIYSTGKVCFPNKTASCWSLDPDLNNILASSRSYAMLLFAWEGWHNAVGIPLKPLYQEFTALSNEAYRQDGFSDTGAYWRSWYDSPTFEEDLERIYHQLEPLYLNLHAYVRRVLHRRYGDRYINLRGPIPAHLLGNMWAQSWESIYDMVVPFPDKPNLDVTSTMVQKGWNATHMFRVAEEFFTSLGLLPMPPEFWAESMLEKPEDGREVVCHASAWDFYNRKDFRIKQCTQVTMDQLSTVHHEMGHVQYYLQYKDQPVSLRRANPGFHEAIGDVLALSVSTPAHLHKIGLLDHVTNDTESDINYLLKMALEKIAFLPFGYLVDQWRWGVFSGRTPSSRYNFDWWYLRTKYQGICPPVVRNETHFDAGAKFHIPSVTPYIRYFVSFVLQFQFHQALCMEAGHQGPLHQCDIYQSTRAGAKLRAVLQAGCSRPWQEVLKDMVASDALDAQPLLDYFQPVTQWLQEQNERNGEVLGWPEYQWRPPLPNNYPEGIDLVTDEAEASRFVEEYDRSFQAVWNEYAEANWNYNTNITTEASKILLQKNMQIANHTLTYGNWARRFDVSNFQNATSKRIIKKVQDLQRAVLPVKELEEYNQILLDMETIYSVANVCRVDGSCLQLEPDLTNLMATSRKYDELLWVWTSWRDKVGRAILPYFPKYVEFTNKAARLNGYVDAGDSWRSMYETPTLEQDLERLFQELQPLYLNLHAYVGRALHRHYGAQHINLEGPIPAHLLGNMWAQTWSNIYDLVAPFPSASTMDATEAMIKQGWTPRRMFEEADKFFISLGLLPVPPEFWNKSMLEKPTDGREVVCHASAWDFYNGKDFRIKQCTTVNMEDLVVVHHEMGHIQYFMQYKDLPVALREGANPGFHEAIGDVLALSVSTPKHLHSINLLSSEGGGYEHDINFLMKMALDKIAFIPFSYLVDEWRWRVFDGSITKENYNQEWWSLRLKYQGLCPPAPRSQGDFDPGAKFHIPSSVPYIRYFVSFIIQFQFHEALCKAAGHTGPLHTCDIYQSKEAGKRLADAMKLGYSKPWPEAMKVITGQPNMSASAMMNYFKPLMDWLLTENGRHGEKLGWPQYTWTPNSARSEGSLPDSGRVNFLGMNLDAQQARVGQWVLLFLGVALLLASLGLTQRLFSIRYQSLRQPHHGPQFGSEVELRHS
In words: biochemical. The class given is tissue-based, Lung.

A further assay concerns the target T2, Leukotriene C4 synthase (Cavia porcellus, UniProt A6XA80).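 Further: enzyme inhibition assay of leukotriene C4 synthase, using LTA4 as the substrate; in other assays of this panel Not Active means under 50% inhibition at 10 µM.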
T2 sequence (A6XA80 whole entry): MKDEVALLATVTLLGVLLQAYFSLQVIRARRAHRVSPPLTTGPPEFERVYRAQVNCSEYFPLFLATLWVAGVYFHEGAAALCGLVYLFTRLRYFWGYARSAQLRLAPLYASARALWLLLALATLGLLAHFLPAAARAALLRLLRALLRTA
In words: biochemical. In kind it is tissue-based, Lung.

Assay [2] can be described thus: DRUGMATRIX: Leukotriene, BLT (LTB4) radioligand binding (ligand: [3H]LTB4). The class given is cell membranes, Membrane. The conditions noted are these: u-937, Not Active = under 50% inhibition at 10 µM.
For assay [3], the target named is Mitogen-activated protein kinase 14 (Homo sapiens, UniProt Q16539). The arrangement: species or system Escherichia coli.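 Further: inhibition of p38alpha enzyme activity in a biochemical kinase assay, with myelin basic protein serving as substrate; in other assays of this panel Not Active means under 50% inhibition at 10 µM.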
Mitogen-activated protein kinase 14, sequence (Q16539 whole entry): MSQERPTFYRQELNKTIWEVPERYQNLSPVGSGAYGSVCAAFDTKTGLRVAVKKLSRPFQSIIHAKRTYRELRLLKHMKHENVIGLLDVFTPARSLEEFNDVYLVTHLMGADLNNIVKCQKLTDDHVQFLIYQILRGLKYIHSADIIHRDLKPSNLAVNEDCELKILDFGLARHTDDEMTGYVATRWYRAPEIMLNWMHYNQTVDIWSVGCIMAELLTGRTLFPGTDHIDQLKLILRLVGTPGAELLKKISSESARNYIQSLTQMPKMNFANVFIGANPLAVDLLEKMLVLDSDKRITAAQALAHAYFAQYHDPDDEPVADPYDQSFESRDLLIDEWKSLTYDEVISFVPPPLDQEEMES
A short description of assay [4]: DRUGMATRIX: Glutamate, Kainate radioligand binding (ligand: [3H] Kainic acid). The class given is cell membranes, Rattus norvegicus, Wistar, Brain, Membrane. The conditions noted are these: Not Active = under 50% inhibition at 10 µM.
Assay [5] addresses T3, Muscarinic acetylcholine receptor M2 (Homo sapiens, UniProt P08172).
T3 sequence (P08172 whole entry): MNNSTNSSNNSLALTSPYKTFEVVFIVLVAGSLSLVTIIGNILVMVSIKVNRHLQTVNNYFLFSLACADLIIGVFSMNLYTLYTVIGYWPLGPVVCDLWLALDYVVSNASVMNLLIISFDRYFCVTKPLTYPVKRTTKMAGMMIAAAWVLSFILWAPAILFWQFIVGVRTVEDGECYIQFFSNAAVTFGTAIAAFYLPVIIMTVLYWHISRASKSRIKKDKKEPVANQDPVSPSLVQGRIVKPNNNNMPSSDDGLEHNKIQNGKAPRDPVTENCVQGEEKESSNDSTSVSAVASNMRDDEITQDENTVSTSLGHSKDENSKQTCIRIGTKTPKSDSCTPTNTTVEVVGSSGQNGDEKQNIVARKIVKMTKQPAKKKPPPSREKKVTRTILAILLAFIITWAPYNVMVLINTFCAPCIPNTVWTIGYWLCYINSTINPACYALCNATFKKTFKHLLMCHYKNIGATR
In kind it is cell membranes, CHO-K1, Membrane.

As for `CC[C@H](C)[C@@H](CO[C@@H](Cc1ccccc1)C(=O)N[C@@H](CCS(C)(=O)=O)C(=O)OC(C)C)NC[C@@H](N)CS`, the IC50 entry (at Adenosine receptor A2a; in assay [1]; against Leukotriene C4 synthase; in assay [2]; in assay [3]; in assay [4]) was “Not Active” in each case. Also, the IC50 in assay [5] (read-out: IC50) turned out to be 3.57 µM. The Ki result is “Not Active” in assay [2], “Not Active” in assay [4] and 1.27 µM in assay [5] (read-out: Ki).

In the case of `Nc1nc(N)c2nc(-c3ccccc3)c(N)nc2n1`, the IC50 entry (on Adenosine receptor A2a; in assay [1]; on Leukotriene C4 synthase; in assay [2]; in assay [3]; in assay [4]) was “Not Active” each time. The IC50 result in assay [5] (cho-k1) is on record as “Not Active”. The Ki result in assay [2] and in assay [4] was “Not Active” in each case.

As for `CCN(CC)C(=S)SSC(=S)N(CC)CC`, the IC50 result on Adenosine receptor A2a is “Not Active”; in assay [1], “Not Active”; on Leukotriene C4 synthase, “Not Active”; in assay [2] (read-out: IC50), 29.9 µM; in assay [3], “Not Active”; in assay [4], “Not Active”. In addition, in assay [5] (cho-k1), the IC50 entry is listed as “Not Active”. The inhibitory constant (Ki) in assay [2] (read-out: Ki) is 7.58 µM; in assay [4], “Not Active”.

In the case of `CN(C)CCC=C1c2ccccc2COc2ccccc21` [DOXEPIN], the IC50 entry (at Adenosine receptor A2a; in assay [1]; at Leukotriene C4 synthase; in assay [3]) was “Not Active” each time.

Turning to `O=C(c1ccccc1)c1ccc2n1CCC2C(=O)O` (stereo not given) [KETOROLAC], the IC50 entry (on Adenosine receptor A2a; in assay [1]; at Leukotriene C4 synthase; in assay [2]; in assay [3]; in assay [4]) was “Not Active” each time. In addition, the IC50 entry in assay [5] (cho-k1) is “Not Active”. Further, the Ki entry in assay [2] and in assay [4] was “Not Active” throughout.

As to `CCOC(=O)C1=C(C)NC(C)=C(C(=O)OCC)C1c1ccccc1/C=C/C(=O)OC(C)(C)C` [LACIDIPINE], the IC50 result (on Adenosine receptor A2a; in assay [1]; against Leukotriene C4 synthase; in assay [2]; in assay [3]; in assay [4]) was “Not Active” throughout. Further, the half-maximal inhibitory concentration (IC50) entry in assay [5] (cho-k1) is “Not Active”. Besides, the Ki result in assay [2] and in assay [4] was “Not Active” each time.

Regarding `CC(O)C(=O)O` (stereo not given) [LACTIC ACID], the IC50 result (at Adenosine receptor A2a; in assay [1]; on Leukotriene C4 synthase; in assay [2]; in assay [3]; in assay [4]) was “Not Active” throughout. In addition, the IC50 entry in assay [5] (cho-k1) was “Not Active”. The Ki entry in assay [2] and in assay [4] was “Not Active” each time.

For `CC(C)(C)NC[C@H](O)COc1cccc2c1CCCC2=O` [LEVOBUNOLOL], the IC50 result (on Adenosine receptor A2a; in assay [1]; against Leukotriene C4 synthase; in assay [2]; in assay [3]; in assay [4]) was “Not Active” each time. Besides, the IC50 entry in assay [5] (cho-k1) was “Not Active”. Further, the Ki result in assay [2] and in assay [4] was “Not Active” in each case.

For the compound `CO[C@@H]1[C@@H](OC)[C@H](C)[C@@](O)(CC(=O)O)O[C@H]1[C@H](C)[C@H]1O[C@@]2(CC[C@@](C)([C@H]3CC[C@@](C)([C@@H]4O[C@@H]([C@H]5O[C@](C)(O)[C@H](C)C[C@@H]5C)C[C@@H]4O[C@@H]4C[C@H](OC)[C@@H](OC)[C@H](C)O4)O3)O2)C[C@H](O)[C@H]1C.N` [MADURAMICIN], the IC50 result (on Adenosine receptor A2a; in assay [1]; at Leukotriene C4 synthase; in assay [2]; in assay [3]; in assay [4]) was “Not Active” throughout. Further, the IC50 entry in assay [5] (cho-k1) is reported as “Not Active”. The Ki entry in assay [2] and in assay [4] was “Not Active” each time.

On to `OC[C@@H](O)[C@@H](O)[C@H](O)[C@H](O)CO` [MANNITOL], for which the IC50 entry (at Adenosine receptor A2a; in assay [1]; at Leukotriene C4 synthase; in assay [2]; in assay [3]; in assay [4]) was “Not Active” in each case. Besides, the 50% inhibitory concentration (IC50) entry in assay [5] (cho-k1) was “Not Active”. For the same compound, the Ki entry in assay [2] and in assay [4] was “Not Active” each time.

Turning to `CNCCCC12CCC(c3ccccc31)c1ccccc12` [MAPROTILINE], the IC50 result (at Adenosine receptor A2a; in assay [1]; against Leukotriene C4 synthase; in assay [3]) was “Not Active” throughout.

Turning to `COC(=O)Nc1nc2ccc(C(=O)c3ccccc3)cc2[nH]1` [MEBENDAZOLE], the IC50 result (on Adenosine receptor A2a; in assay [1]; against Leukotriene C4 synthase; in assay [2]; in assay [3]; in assay [4]) was “Not Active” in each case. Besides, the IC50 result in assay [5] (cho-k1) is on record as “Not Active”. For the same compound, the Ki result in assay [2] and in assay [4] was “Not Active” in each case.

As for `Cc1ccc(Cl)c(Nc2ccccc2C(=O)O)c1Cl` [MECLOFENAMIC ACID], the IC50 result (on Adenosine receptor A2a; in assay [1]; at Leukotriene C4 synthase; in assay [2]; in assay [3]; in assay [4]) was “Not Active” each time. Moreover, the IC50 entry in assay [5] (cho-k1) was “Not Active”. The Ki entry in assay [2] and in assay [4] was “Not Active” each time.

Regarding `CC(=O)O[C@]1(C(C)=O)CC[C@H]2[C@@H]3C[C@H](C)C4=CC(=O)CC[C@]4(C)[C@H]3CC[C@@]21C` [MEDROXYPROGESTERONE ACETATE], the IC50 result (at Adenosine receptor A2a; in assay [1]; against Leukotriene C4 synthase; in assay [2]; in assay [3]; in assay [4]) was “Not Active” throughout. For the same compound, in assay [5] (cho-k1), the IC50 entry is “Not Active”. Further, the Ki result in assay [2] and in assay [4] was “Not Active” throughout.

Take `C[N+]1(C)[C@@H]2C[C@@H](OC(=O)[C@H](CO)c3ccccc3)C[C@H]1[C@@H]1O[C@@H]12.[Br-]` [METHSCOPOLAMINE BROMIDE]: the IC50 result (at Adenosine receptor A2a; in assay [1]; on Leukotriene C4 synthase; in assay [2]; in assay [3]; in assay [4]) was “Not Active” throughout. Further, the Ki entry in assay [2] and in assay [4] was “Not Active” each time.

For the compound `Cc1cc2c(s1)Nc1ccccc1N=C2N1CCN(C)CC1` [OLANZAPINE], the half-inhibitory concentration (IC50) entry (on Adenosine receptor A2a; in assay [1]; on Leukotriene C4 synthase; in assay [3]; in assay [5] (cho-k1)) was “Not Active” each time.
